The values that follow come from ChEMBL document CHEMBL3407496, “Chalcones and their therapeutic targets for the management of diabetes: structural and pharmacological perspectives” (Eur J Med Chem, 2015).

For test [1], the species on record is Homo sapiens. Kind of test: Inhibition of ALR1 (unknown origin). To be noted: concentration not given here.
Test [2] has as its target Aldo-keto reductase family 1 member B1 (Homo sapiens) (UniProt P15121). As to the kind of experiment: Inhibition of ALR2 (unknown origin). As to conditions: concentration not given here.
Test [3] has the same target. As to the kind of experiment: Inhibition of aldose reductase (unknown origin) at 10 ug/ml.
The target of test [4] is T1, Tyrosine-protein phosphatase non-receptor type 1 (Homo sapiens, UniProt P18031).
T1 sequence (P18031 whole entry): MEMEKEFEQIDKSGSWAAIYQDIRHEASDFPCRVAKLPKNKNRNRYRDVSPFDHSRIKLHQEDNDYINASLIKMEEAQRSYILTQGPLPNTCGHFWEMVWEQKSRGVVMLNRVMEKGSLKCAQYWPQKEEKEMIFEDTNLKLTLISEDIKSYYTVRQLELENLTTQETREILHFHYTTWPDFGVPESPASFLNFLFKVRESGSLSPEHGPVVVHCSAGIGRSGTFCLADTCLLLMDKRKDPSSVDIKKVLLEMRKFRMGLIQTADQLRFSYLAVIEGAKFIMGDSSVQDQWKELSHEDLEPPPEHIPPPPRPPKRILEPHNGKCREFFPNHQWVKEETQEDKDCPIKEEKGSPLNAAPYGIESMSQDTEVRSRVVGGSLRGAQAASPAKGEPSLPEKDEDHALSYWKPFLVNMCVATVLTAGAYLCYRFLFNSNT
As to the kind of experiment: Competitive inhibition of PTP1B (unknown origin) using p-nitrophenyl phosphate as substrate.

Test [5] in a line: Non-competitive inhibition of alpha-glucosidase (unknown origin). On the set-up: species or system Homo sapiens.
Test [6] concerns the target T2, Solute carrier family 2, facilitated glucose transporter member 4 (Rattus norvegicus) (UniProt P19357).
T2 sequence (whole entry): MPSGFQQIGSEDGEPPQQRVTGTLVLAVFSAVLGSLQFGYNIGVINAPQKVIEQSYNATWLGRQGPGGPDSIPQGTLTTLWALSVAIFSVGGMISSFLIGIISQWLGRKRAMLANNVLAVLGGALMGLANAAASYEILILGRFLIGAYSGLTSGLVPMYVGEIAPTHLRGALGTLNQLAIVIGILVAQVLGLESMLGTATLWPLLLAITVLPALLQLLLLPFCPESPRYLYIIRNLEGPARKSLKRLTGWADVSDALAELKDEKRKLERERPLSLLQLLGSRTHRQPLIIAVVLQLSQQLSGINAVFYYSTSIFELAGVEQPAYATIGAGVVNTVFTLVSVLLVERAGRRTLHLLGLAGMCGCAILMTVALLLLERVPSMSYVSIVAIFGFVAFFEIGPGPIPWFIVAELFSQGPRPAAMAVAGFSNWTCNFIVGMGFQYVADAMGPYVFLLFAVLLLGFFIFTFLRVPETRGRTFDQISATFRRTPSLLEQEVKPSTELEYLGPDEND
Kind of test: Induction of GLUT4 translocation in rat L6 cells assessed as increase in 2-deoxyglucose uptake relative to control. The test is classed as cell-based.

In test [7] the target is T1, Tyrosine-protein phosphatase non-receptor type 1. Kind of test: Inhibition of PTP1B (unknown origin).
Test [8] deals with Oryctolagus cuniculus. Kind of test: Reduction of blood glucose in normoglycemic rabbit at 50 mg/kg, po after 4 hrs. Also on record: scale not given: the % may be the effect or the level left. The test is classed as functional.

Usually inhibition stands for the drop in the measured response relative to a control, in per cent. By pIC50 is commonly meant the IC50 on a negative log10 scale, so that one unit is a factor of ten.

pIC50: −log10 of the molar value.

For `O=C(/C=C/c1ccc(Cl)cc1)c1ccc(O)cc1O`, the inhibition in test [1] and in test [2] was 35% each time.

Turning to `C=C(C)C(CC=C(C)C)Cc1c(O)cc(OC)c(C(=O)/C(O)=C/c2ccc(O)cc2O)c1O` (stereo unspecified), the inhibition in test [3] was 53.7%.

`COc1cc(O)c(CC=C(C)C)c(O)c1C(=O)/C(O)=C/c1ccc(O)cc1`: the inhibition in test [3] was 53.7%.

Turning to `O=C(/C=C/c1ccco1)c1ccc(O)cc1O`, the negative logarithm of the IC50 (pIC50) in test [4] is 5.60.

In the case of `COc1cc(O)c(CC=C(C)C)c(O)c1C(=O)/C=C/c1ccc(O)cc1` [XANTHOHUMOL], the negative-log IC50 (pIC50) in test [5] was 5.06.

Consider `CSc1ccc(/C=C/C(=O)c2ccc(O)cc2O)cc1`, for which the inhibition in test [1] and in test [2] was 35% throughout.

Regarding `O=C(/C=C/c1ccco1)c1cccc(Cl)c1`, the pIC50 in test [4] is 5.54.

For `COc1ccc(C(=O)/C=C/c2ccc(O)cc2)c(O)c1CC=C(C)C`, the Ratio in test [6] worked out at 1.9.

Compound `CC(/C=C1\SC(=S)N(CC(=O)O)C1=O)=C\c1ccccc1` had an inhibition in test [3] of 55.6%.

With `CC(C)=CCc1cc(C(=O)/C=C/c2ccc(O)c(O)c2)c(O)cc1O` [BROUSSOCHALCONE A], the results for the negative-log IC50 (pIC50) in test [7] and in test [5] were 4.67 and 5.28, respectively.

`COc1ccc(/C=C/C(=O)c2ccc(OC)cc2O)cc1`: the inhibition in test [1] and in test [2] was 35% throughout.

Compound `C=C(C)C(CCC(C)(C)O)Cc1c(O)cc(OC)c(C(=O)/C(O)=C/c2ccc(O)cc2O)c1O` (stereo unspecified) returned an inhibition in test [3] of 53.7%.

`Cc1ccc(S(=O)(=O)CC(=O)Cc2ccccc2C(=O)/C=C/c2ccc(Cl)cc2Cl)cc1`: the Activity in test [8] turned out to be 38.73%.

Compound `CC1(C)CCc2cc(C(=O)/C=C/c3ccc(O)c(O)c3)c(O)cc2O1` showed a negative-log IC50 (pIC50) in test [5] of 5.28.

Consider `CC1(C)CCc2cc(C(=O)/C=C/c3ccc(O)cc3)c(O)cc2O1`, for which, in test [5], the pIC50 was 5.28.

As for `CC(C)=CCc1cc(C(=O)/C=C/c2ccc(O)cc2)c(O)cc1O` [BROUSSOCHALCONE B], the negative-log IC50 (pIC50) in test [5] was 5.28.

With `CC(C)=CCC/C(C)=C/Cc1c(O)ccc(C(=O)/C=C/c2ccc(O)cc2)c1O`, the Ratio in test [6] worked out at 1.9.
